Source: patent US11672771B2, “Beta-alethine, immune modulators, and uses thereof” (AxImmune, Inc., priority 2016, dated 2023)
Entries after “also recorded” stand apart in the source; their conditions may differ.

Legend:
[1] = tested on: human peripheral blood mononuclear cells; conditions: polarized Th1 response; cited from earlier work
[2] = tested on: Cloudman melanoma cancer cell line; experiment: Tumor growth with β-alethine, anti-PD-1 or both (concurrent or sequential) in Cloudman melanoma mice; assay type: in vivo; conditions: for tumor growth (tumor size): vs PBS, not statistically significant
Procedure: After confirming tumor growth, mice were randomized into the treatment groups listed in Table 4. n=10 mice in the Low Dose, High Dose, q14, untreated, and PBS groups; n=5 mice in PD-1 and BLT/PD-1 groups.
Tumor growth was measured 3 times a week. […] In the PBS treated group, there likely was an artificially low reading in the PBS group on day 23. A repeat reading of tumor size at day 25 confirmed the original trajectory. […] In addition, by day 25, the cancers in all these groups were growing at rates similar to the PBS or untreated control.
In order to further examine this dramatic result, long-term immunity after relapse was determined. In the mice treated with three doses of PD-1 alone at days 15, 18, and 21, tumor size increased through day 29 until the average size was almost 50 mm^2. […] At day 29, mice in the single agent anti-PD-1 treated group received a dose of 30 mg/kg β-alethine subcutaneously, and then weekly thereafter. […] Thus, in total, 9 of 10 mice in either the combination treatment group or the anti-PD-1 rescued with β-alethine group had complete regression of their tumors.

[3] = tested on: Cloudman melanoma cancer cell line; experiment: Tumor size after s.c. and intratumoral β-alethine in mice with established Cloudman melanoma; assay type: in vivo, DBA mice
Procedure: At 38 days after tumor cell injection, the tumors were 17, 25 and 32 mm^2. At 38, 46, and 52 days after tumor cell injection, mice were treated with s.c. injections between the shoulder blades (distal to the tumor) of 30 mg/kg β-alethine in sterile saline (each s.c. injection of β-alethine is indicated by triangles in FIG. 2). Tumor size was monitored after each injection. […] However, the other two mice were then treated with β-alethine at 30 mg/kg intratumorally (i.t.) on day 55 post-tumor cell injection.
Further, when β-alethine was injected directly into the tumors, animals that previously had not responded or not fully responded via s.c. injection now responded, included apparent complete response.

MT-1 tumor xenograft = conditions: cited from earlier work
[4] = tested on: monocytes expressing PD-L1; experiment: Ex vivo treatment of dog white blood cells, PD-L1 on monocytes by flow cytometry; assay type: cell-based; conditions: 0-1000 uM, 24 hours incubation, autologous serum; in some of the dogs (three healthy, three with cancer)
Procedure: In this study, white blood cells and serum were isolated from three healthy dogs and three dogs with cancer. Two dogs had osteosarcoma (Cancer_1 and Cancer_2 in FIG. 5) and one dog had melanoma (Cancer_3 in FIG. 5). Isolated white blood cells were grown in culture with autologous dog serum and varying doses of β-alethine (0-1000 uM). After 24 hours of incubation with β-alethine, monocytes were isolated and were examined for PD-L1 expression using flow cytometry analysis and a canine-specific anti-PD-L1 antibody. […] Further is documents cross species activity of BA. Current human clinical trials with immune checkpoint inhibitors also include antibodies antagonistic to PD-L1. Thus, β-alethine could also be used synergistically with anti-PD-L1 therapies.

lymphoma = conditions: single agent; cited from earlier work
Cloudman S-91 melanomas = conditions: melanomas already established; cited from earlier work
[5] = tested on: CD4+ or CD8+ T cells that expressed PD-1, Lag3, or Tim3; experiment: Checkpoint inhibitor expression and T cell percentages in blood 48 hours after one s.c. injection of β-alethine in Cloudman melanoma mice; assay type: in vivo, DBA mice
Procedure: It was hypothesized that β-alethine could affect checkpoint inhibitors expression in vivo in tumor bearing animals. […] As a baseline, blood from each animal was taken (“Cloudman preBLT”). Mice then were treated with one subcutaneous (s.c.) injection of 30 mg/kg β-alethine. 48 hours after receiving the s.c. injection of β-alethine, blood was taken (“Cloudman postBLT”). […]

[6] = in vivo; cited from earlier work
NS-1 mouse myeloma = conditions: repeated administration as monotherapy soon after inoculation with relatively low doses of tumor; cited from earlier work
multiple myeloma = multiple myeloma (Benson et al., 2012); cited from earlier work
[7] = Post-, 48 hours after β-alethine s.c.
[8] = Post-β-alethine, blood 48 hours after one s.c. injection of 30 mg/kg

NCCC(=O)NCCSSCCNC(=O)CCN [β-alethine, 3-amino-N-(2-{[2-(3-aminopropanamido)ethyl]disulfanyl}ethyl)propenamide]
IFN-γ production [1]: increased IFN-γ production | IL-10 expression [1]: depressed IL-10 expression | T cell activation and proliferation [1]: increased T cell activation and proliferation | tumor growth (tumor size) ([2]; High dose: 30 mg/kg s.c. once a week from day 15): delayed tumor growth temporarily | tumor growth (tumor size) ([2]; Low dose: 30 ng/kg s.c. once a week from day 15): delayed tumor growth temporarily | toxicity ([2]; low dose or high dose β-alethine alone): no obvious toxicity was observed | tumor response of second mouse after intratumoral injection ([3]; 30 mg/kg i.t. on day 55 after s.c. injections, seen on day 66): complete regression of the tumor | tumor size of remaining mouse after series of i.t. injections ([3]; 30 mg/kg i.t. on days 55, 68, 82): decrease in tumor size | start of tumor regression in the remaining mouse ([3]; 30 mg/kg i.t. on days 55, 68, 82 after s.c. injections): ~70 day post-tumor cell injection | complete tumor regression after s.c. injections ([3]; 30 mg/kg s.c. at days 38, 46, 52, three mice, at day 56 post-tumor cell injection): one of the mice demonstrated a complete tumor regression | local or systemic side effects ([3]; i.t. injections of 30 mg/kg in the mouse): not associated with any perceivable local or systemic side effects | effectiveness of chemotherapy for late stage breast cancer (MT-1 tumor xenograft; adjunct to chemotherapy): increase effectiveness of chemotherapy | toxicity due to the chemotherapy (MT-1 tumor xenograft; adjunct to chemotherapy): did not increase toxicity due to the chemotherapy | localized tumor growth (MT-1 tumor xenograft; breast cancer): effective in treating localized tumor growth | percentages of monocytes expressing PD-L1 [4]: reduced the percentages of monocytes expressing PD-L1 | drug related adverse events (lymphoma): no local or systemic drug related adverse events; also recorded: no drug-related adverse events | tumor size in lymphoma patients not anergic to recall antigens pre-trial (lymphoma): reduction or stabilization in tumor sized in all patients with lymphoma who were not anergic to recall antigens pre-trial; also recorded: shrinkage or stabilization in all patients with lymphoma who were not anergic to recall antigens pre-trial | percent survival (Cloudman S-91 melanomas): increase the percent survival | number of molecule per cell (mean fluorescent intensity MFI) on cells that continued to have checkpoint molecule expression ([5]; 48 hours after one s.c. injection of 30 mg/kg vs before): specific reduction | percentages of CD4 and CD8 T cells expressing PD-1, Lag3, or Tim3 ([5]; FIG. 1A, 48 hours after one s.c. injection of 30 mg/kg vs before): reduced percentages | % CD8+ of white blood cells [5, 7]: 0.9% | CD4-Lag3, percentage of cells expressing checkpoint inhibitor [5, 7]: 2.1% | CD4-PD1, percentage of cells expressing checkpoint inhibitor [5, 7]: 4.4% | CD4-Tim3, percentage of cells expressing checkpoint inhibitor [5, 7]: 1.3% | CD8-Lag3, percentage of cells expressing checkpoint inhibitor [5, 7]: 0.1% | CD8-PD1, percentage of cells expressing checkpoint inhibitor [5, 7]: 1.2% | CD8-Tim3, percentage of cells expressing checkpoint inhibitor [5, 7]: 0.2% | CD4-Lag3+ checkpoint inhibitor expression [5, 8]: 55 MFI | CD4-PD1+ checkpoint inhibitor expression [5, 8]: 153 MFI | CD4-Tim3+ checkpoint inhibitor expression [5, 8]: 93 MFI | CD8-Lag3+ checkpoint inhibitor expression [5, 8]: 627 MFI | CD8-PD1+ checkpoint inhibitor expression [5, 8]: 259 MFI | CD8-Tim3 checkpoint inhibitor expression [5, 8]: 1283 MFI | toxicity in animals [6]: non-toxic | survival rates (NS-1 mouse myeloma): significantly increased survival rates

IPH2101: anti-KIR antibody (Innate Pharma)
anti-tumor activity (multiple myeloma): demonstrated anti-tumor activity

lirlumab: anti-KIR antibody (Innate Pharma)
anti-tumor activity (multiple myeloma): demonstrated anti-tumor activity
